Test results published in patent US20240158348A1, “HERBICIDAL CYCLIC AMIDES N-SUBSTITUTED WITH A HALOALKYLSULFONYLANILIDE GROUP” (FMC Corporation, priority 2021, published 2024).

Experiments:
Assay type in all cases: in vivo
[1] = system: goosegrass (Eleusine indica); experiment: Test C postemergence, goosegrass; settings: for Goosegrass plant response rating: 31 g ai/ha Postemergence, visual injury, 0 to 100 scale (0 no effect, 100 complete control); for Plant response rating (0 to 100 scale), Goosegrass: 125 g ai/ha Postemergence, 0 is no effect, 100 is complete control
Summary of the method: (§1)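 Ratings run from 0, meaning no effect, up to 100, meaning complete control, judged by eye against untreated plants. Treatment was a directed soil spray before emergence or a postemergence spray on 2–10 cm seedlings, with evaluation 10 or 12 days later.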

[2] = system: foxtail, giant (giant foxtail, Setaria faberi); experiment: Test C postemergence, giant foxtail; settings: for Foxtail, Giant plant response rating: 31 g ai/ha Postemergence, visual injury, 0 to 100 scale (0 no effect, 100 complete control); for Plant response rating (0 to 100 scale), Foxtail, Giant: 125 g ai/ha Postemergence, 0 is no effect, 100 is complete control
[3] = system: goosegrass (Eleusine indica); experiment: Test C preemergence, goosegrass; settings: 0 is no effect, 100 is complete control
Summary of the method: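 Greenhouse pot test. Compounds in a non-phytotoxic solvent with surfactant were applied to a loam–sand soil mix either preemergence as a directed spray or postemergence to plants at the one- to two-leaf stage; 0–100 visual ratings followed after 10 or 12 days.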

[4] = system: oat, wild (wild oat, Avena fatua); experiment: Test C preemergence, wild oat; settings: 0 is no effect, 100 is complete control
Summary of the method: as §1

kochia (Bassia scoparia) = experiment: Test C postemergence, kochia; settings: for Kochia plant response rating: 31 g ai/ha Postemergence, visual injury, 0 to 100 scale (0 no effect, 100 complete control); for Plant response rating (0 to 100 scale), Kochia: 125 g ai/ha Postemergence, 0 is no effect, 100 is complete control
Summary of the method: as §1

[5] = system: pigweed, palmer (palmer amaranth, Amaranthus palmeri); experiment: Test C postemergence, palmer amaranth; settings: for Pigweed, Palmer plant response rating: visual injury, 0 to 100 scale (0 no effect, 100 complete control); for Plant response rating (0 to 100 scale), Pigweed, Palmer: 0 is no effect, 100 is complete control
Summary of the method: as §1

[6] = system: wheat (Triticum aestivum); experiment: Test C preemergence, wheat; settings: 0 is no effect, 100 is complete control

Row | Structure (SMILES) | Goosegrass plant response rating [1] | Plant response rating (0 to 100 scale), Goosegrass [1] | Foxtail, Giant plant response rating [2] | Plant response rating (0 to 100 scale), Foxtail, Giant [2] | Plant response rating (0 to 100 scale), Goosegrass ([3]; 31 g ai/ha Preemergence) | Plant response rating (0 to 100 scale), Goosegrass ([3]; 125 g ai/ha Preemergence) | Plant response rating (0 to 100 scale), Oat, Wild ([4]; 31 g ai/ha Preemergence) | Plant response rating (0 to 100 scale), Oat, Wild ([4]; 125 g ai/ha Preemergence) | Kochia plant response rating (kochia (Bassia scoparia)) | Plant response rating (0 to 100 scale), Kochia (kochia (Bassia scoparia)) | Pigweed, Palmer plant response rating ([5]; 31 g ai/ha Postemergence) | Plant response rating (0 to 100 scale), Pigweed, Palmer ([5]; 125 g ai/ha Postemergence) | Plant response rating (0 to 100 scale), Wheat ([6]; 31 g ai/ha Preemergence) | Plant response rating (0 to 100 scale), Wheat ([6]; 125 g ai/ha Preemergence) | Pigweed, Palmer plant response rating ([5]; 125 g ai/ha Postemergence)
1 | CC(=O)N(c1cc(N2CCC(OC3CC3)C2=O)c(C)cc1C)S(=O)(=O)C(F)(F)F (stereo not shown) [Compound 17] | 90 | 90 | 90 | 90 | 100 | 100 | 90 | 100 | 80 | 90 | 40 | 90 | 30 | 100 | –
2 | CCOC(=O)N(c1cc(N2CCC(OC3CC3)C2=O)c(C)cc1C)S(=O)(=O)C(F)(F)F (stereo not shown) [Compound 19] | 0 | 90 | 0 | 20 | 0 | 70 | 0 | 40 | 30 | 70 | 0 | 10 | 0 | 10 | –
3 | Cc1cc(C)c(N(C(=O)OCC(C)C)S(=O)(=O)C(F)(F)F)cc1N1CCC(OC2CC2)C1=O (stereo not shown) [Compound 21] | 90 | 90 | 40 | 90 | 90 | 100 | 30 | 90 | 70 | 80 | 30 | 70 | 10 | 90 | –
4 | Cc1c(N2CCC(OC3CC3)C2=O)cc(N(COC(=O)C(C)(C)C)S(=O)(=O)C(F)(F)F)c(C)c1F (stereo not shown) [Compound 23] | 30 | 90 | 0 | 80 | 70 | 100 | 40 | 90 | 30 | 80 | 50 | 70 | 10 | 30 | –
5 | Cc1c(NS(=O)(=O)C(F)(F)F)cc(N2CCC(OC3CCC3)C2=O)c(C)c1F (stereo not shown) [Compound 25] | 50 | 90 | 30 | 30 | 90 | 100 | 40 | 90 | 60 | 90 | 70 | – | 60 | 100 | 90
6 | Cc1c(NS(=O)(=O)C(F)(F)F)cc(N2CCC(OC3CC3)C2=O)c(C)c1F (stereo not shown) [Compound 26] | 80 | 100 | 40 | 90 | 90 | 100 | 60 | 100 | 70 | 90 | 70 | – | 60 | 100 | 90
7 | Cc1c(N2CCC(OC3CCC3)C2=O)cc(N(COC(=O)C(C)(C)C)S(=O)(=O)C(F)(F)F)c(C)c1F (stereo not shown) [Compound 28] | 30 | 70 | 30 | 70 | 70 | 100 | 0 | 20 | 50 | 80 | 50 | – | 20 | 30 | 90
8 | Cc1cc(Cl)c(N(COC(=O)C(C)(C)C)S(=O)(=O)C(F)(F)F)cc1N1CCC(OC2CC2)C1=O (stereo not shown) [Compound 33] | 60 | 90 | 50 | 90 | 90 | 100 | 10 | 50 | 80 | 90 | 20 | – | 10 | 40 | 80
9 | Cc1c(NS(=O)(=O)C(F)(F)F)cc(N2CCCC(OC3CCC3)C2=O)c(C)c1F (stereo not shown) [Compound 36] | 30 | 90 | 10 | 30 | 90 | 100 | 30 | 90 | 40 | 80 | 30 | – | 40 | 100 | 70
10 | Cc1c(N2CCCC(OC3CC3)C2=O)cc(N(COC(=O)C(C)(C)C)S(=O)(=O)C(F)(F)F)c(C)c1F (stereo not shown) [Compound 37] | 0 | 90 | 10 | 80 | 50 | 100 | 20 | 20 | 50 | 70 | 0 | – | 0 | 20 | 30
11 | CC(=O)N(c1cc(N2CCC(OC3CC3)C2=O)c(C)cc1Cl)S(=O)(=O)C(F)(F)F (stereo not shown) [Compound 38] | 30 | 90 | 50 | 90 | 100 | 100 | 30 | 100 | 80 | 90 | 50 | – | 40 | 90 | 80
